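Tested at 5 concentrations; 48 h exposure; 96-well plates; endpoints linearly interpolated, else capped at highest concentration. TGI denotes the concentration required for complete inhibition of growth.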
How the values were obtained:
Test in all cases: growth of human tumour cells (NCI), 48 h
[1] = test system: 786-0 renal
[2] = test system: A498 renal
[3] = test system: A549 NSCLC
[4] = test system: ACHN renal
[5] = test system: CAKI-1 renal
[6] = test system: CCRF-CEM leukemia
[7] = test system: COLO 205 colon
[8] = test system: DLD-1 colon
[9] = test system: DMS 114 small cell lung
[10] = test system: DMS 273 small cell lung
[11] = test system: EKVX NSCLC
[12] = test system: HCC-2998 colon
[13] = test system: HCT-116 colon
[14] = test system: HCT-15 colon
[15] = test system: HL-60(TB) leukemia
[16] = test system: HOP-62 NSCLC
[17] = test system: HOP-92 NSCLC
[18] = test system: HT29 colon
[19] = test system: IGROV1 ovarian
[20] = test system: K-562 leukemia
[21] = test system: KM12 colon
[22] = test system: KM20L2 colon
[23] = test system: LOX IMVI melanoma
[24] = test system: LXFL 529 NSCLC
[25] = test system: M14 melanoma
[26] = test system: M19-MEL melanoma
[27] = test system: MALME-3M melanoma
[28] = test system: MOLT-4 leukemia
[29] = test system: NCI-H226 lung
[30] = test system: NCI-H23 lung
[31] = test system: NCI-H460 lung
[32] = test system: NCI-H522 lung
[33] = test system: OVCAR-3 ovarian
[34] = test system: OVCAR-4 ovarian
[35] = test system: OVCAR-5 ovarian
[36] = test system: OVCAR-8 ovarian
[37] = test system: RPMI-8226 leukemia
[38] = test system: RXF 393 renal
[39] = test system: RXF-631 renal
[40] = test system: SF-268 CNS
[41] = test system: SF-295 CNS
[42] = test system: SF-539 CNS
[43] = test system: SK-MEL-2 melanoma
[44] = test system: SK-MEL-28 melanoma
[45] = test system: SK-MEL-5 melanoma
[46] = test system: SK-OV-3 ovarian
[47] = test system: SN12C renal
[48] = test system: SNB-19 CNS
[49] = test system: SNB-75 CNS
[50] = test system: SW-620 colon
[51] = test system: TK-10 renal
[52] = test system: U251 CNS
[53] = test system: UACC-257 melanoma
[54] = test system: UACC-62 melanoma
[55] = test system: UO-31 renal
[56] = test system: XF 498 CNS
[57] = test system: SNB-78 CNS
[58] = test system: SR leukemia

Measured: TGI

Cc1cc(Cl)cc2c1NC(=O)C2(O)CC(=O)c1ccc(Br)cc1 (stereo unspecified)
97.9 µM: [44]
> 70.8 µM: [2]
56.9 µM: [38]
42.7 µM: [6]
76.2 µM: [56]
46.5 µM: [28]
> 55 µM: [26]
99.4 µM: [30]
56.2 µM: [54]
> 54.6 µM: [34]
48.2 µM: [15]
57.8 µM: [45]
not listed: [57] | [58]
> 100 µM: all other assays above

CCC1CCCCN1CC(C(C)=O)C(c1ccccc1)c1c(O)c2ccccc2oc1=O (stereo unspecified)
not listed: [12] | [17] | [24]
> 100 µM: all other assays above

Reference: PubChem BioAssay (NCI)
